Experimental data reported in PubChem BioAssay (NCI).
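Growth conditions: 96-well plates. Treatment: test compound, 48 hours, 5 concentrations. Analysis: linear interpolation between bracketing concentrations; unreached endpoints set to highest concentration. The concentration for full growth arrest is given as TGI.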

Experiments:
Assay in all cases: NCI-60 cell line screen, 48 h
NCI-H23 lung = system: NCI-H23 lung
COLO 205 colon = system: COLO 205 colon
NCI-H226 lung = system: NCI-H226 lung
SF-295 CNS = system: SF-295 CNS
786-0 renal = system: 786-0 renal
TK-10 renal = system: TK-10 renal
SN12C renal = system: SN12C renal
SK-MEL-5 melanoma = system: SK-MEL-5 melanoma
MDA-MB-435 = system: MDA-MB-435
U251 CNS = system: U251 CNS
M14 melanoma = system: M14 melanoma
EKVX NSCLC = system: EKVX NSCLC
MOLT-4 leukemia = system: MOLT-4 leukemia
DU-145 prostate = system: DU-145 prostate
SF-268 CNS = system: SF-268 CNS
SK-OV-3 ovarian = system: SK-OV-3 ovarian
SK-MEL-28 melanoma = system: SK-MEL-28 melanoma
MDA-N = system: MDA-N
BT-549 breast = system: BT-549 breast
HOP-92 NSCLC = system: HOP-92 NSCLC
MCF7 breast = system: MCF7 breast
HCT-116 colon = system: HCT-116 colon
SNB-75 CNS = system: SNB-75 CNS
SNB-19 CNS = system: SNB-19 CNS
OVCAR-4 ovarian = system: OVCAR-4 ovarian
SW-620 colon = system: SW-620 colon
UO-31 renal = system: UO-31 renal
A498 renal = system: A498 renal
NCI-H460 lung = system: NCI-H460 lung
OVCAR-5 ovarian = system: OVCAR-5 ovarian
CAKI-1 renal = system: CAKI-1 renal
A549 NSCLC = system: A549 NSCLC
NCI/ADR-RES ovarian = system: NCI/ADR-RES ovarian
HCC-2998 colon = system: HCC-2998 colon
UACC-62 melanoma = system: UACC-62 melanoma
HCT-15 colon = system: HCT-15 colon
UACC-257 melanoma = system: UACC-257 melanoma
HT29 colon = system: HT29 colon
PC-3 prostate = system: PC-3 prostate
K-562 leukemia = system: K-562 leukemia
MDA-MB-231 breast = system: MDA-MB-231 breast
ACHN renal = system: ACHN renal
SK-MEL-2 melanoma = system: SK-MEL-2 melanoma
IGROV1 ovarian = system: IGROV1 ovarian
KM12 colon = system: KM12 colon
RXF 393 renal = system: RXF 393 renal
MALME-3M melanoma = system: MALME-3M melanoma
RPMI-8226 leukemia = system: RPMI-8226 leukemia
NCI-H522 lung = system: NCI-H522 lung
SF-539 CNS = system: SF-539 CNS
OVCAR-3 ovarian = system: OVCAR-3 ovarian
HOP-62 NSCLC = system: HOP-62 NSCLC
OVCAR-8 ovarian = system: OVCAR-8 ovarian
HL-60(TB) leukemia = system: HL-60(TB) leukemia
LOX IMVI melanoma = system: LOX IMVI melanoma
CCRF-CEM leukemia = system: CCRF-CEM leukemia
HS 578T breast = system: HS 578T breast
SR leukemia = system: SR leukemia

Measured: TGI

O=C(COc1ccc(OCC(=O)N2C(=O)CSC2=Nc2ccccc2)cc1)N1C(=O)CSC1=Nc1ccccc1
27.3 µM: HCT-116 colon
36 µM: UACC-62 melanoma
86.2 µM: MALME-3M melanoma
33.3 µM: SK-MEL-5 melanoma
41.2 µM: HT29 colon
90.1 µM: MDA-MB-231 breast
96.2 µM: COLO 205 colon
63.2 µM: 786-0 renal
44.3 µM: KM12 colon
82.8 µM: IGROV1 ovarian
79.7 µM: MDA-N
91.9 µM: OVCAR-5 ovarian
44.2 µM: HCC-2998 colon
42.1 µM: NCI-H522 lung
47.7 µM: CAKI-1 renal
not listed: SF-539 CNS | OVCAR-3 ovarian | HOP-62 NSCLC | OVCAR-8 ovarian | HL-60(TB) leukemia | LOX IMVI melanoma | CCRF-CEM leukemia | HS 578T breast | SR leukemia
> 100 µM: all other assays above

CC(=O)NC(C)(C)C1CC=C(C)CC1 (centres undefined)
not listed: HOP-92 NSCLC | SK-MEL-2 melanoma | NCI-H522 lung
> 100 µM: all other assays above
